Results on 1 compound are retold here after US20220152065A1, “METHOD OF BLOCKING OR AMELIORATING CYTOKINE RELEASE SYNDROME” (Rigel Pharmaceuticals, Inc., priority 2019, published 2022).

In assay [1] the target is Fc receptor signaling (degranulation). Particulars: IgE- and IgG-mediated Fc receptor activation; cited from earlier work.
Assay [2] relates to Dendritic cells + T cells + CD3/CD28 beads (IL-6 production). The experiment in a line: CRS assay: IL6 ELISA of supernatant from dendritic cells + T cells + CD3/CD28 beads. It counts as cell-based. Conditions: human PBMC-derived dendritic cells, 1 h compound pre-incubation, T cells with CD3/CD28 beads overnight; IL-6 in supernatant.
Description: Transfer human PBMC cells (400 million) obtained from the vendor into three T-175 flasks containing 16 ml RPMI media (10% FBS) and incubate for 2 h at 37° C. After 2 h, remove floating PBL and rinse cell twice with 10 ml of media. Save PBL and media for T cell expansion. Add 16 ml of fresh RPMI media (10% FBS) containing GMCSF (100 ng/ml) and IL4 (20 ng/ml) and keep the flask in 37° C. incubator. […]
After 4 days, harvest the dendritic cells by spinning down (1000 rpm/10 min) and aspirate the media. […] To the remaining 40 μl/well of the cell culture plate add 25 μl of Cell Titer Glo reagent, incubate for 1-2 minutes on a shaker and read the plate for luminescence intensity to determine the compound cytotoxicity. […]
Assay [3] relates to Dendritic cells + T cells + CD3/CD28 beads (IL-2 production). The experiment in a line: CRS assay: IL2 ELISA of supernatant from dendritic cells + T cells + CD3/CD28 beads. The class given is cell-based. Conditions: human PBMC-derived dendritic cells, 1 h compound pre-incubation, T cells with CD3/CD28 beads overnight; IL-2 in supernatant. The source says:
• 1. Human PBMC cells (PPA Research Group, Cat No. 15-00021) • 2. RPMI media 10% FBS • 3. GMCSF (Peprotech, Cat No. 300-03) and IL4 (Peprotech Cat No. 200-04) • 4. White clear bottom 96 well plates (Fisher, Cat No. 07-200-587, Corning #3903) • 5. Human IL-2 DuoSet ELISA (R&D Systems, Cat No. DY202) • 6. Human IL-6 DuoSet ELISA (R&D Systems, Cat No. DY206) • 7. Cell Titer Glo reagent (Promega, Cat No. G7573) • 8. Dynabeads Human T-Activator CD3/CD28 (Fisher, Cat No. 111.61D) • 9. Anti-human CD3 (BD Biosciences, Cat No. 555336) • 10. CD28, Clone CD28.2 (Beckman Coulter Inc. Cat No. IM1376) • 11. Recombinant Human IL-2 Protein (R&D Systems, Cat No. 202-IL-500)
Transfer human PBMC cells (400 million) obtained from the vendor into three T-175 flasks containing 16 ml RPMI media (10% FBS) and incubate for 2 h at 37° C. After 2 h, remove floating PBL and rinse cell twice with 10 ml of media. Save PBL and media for T cell expansion. Add 16 ml of fresh RPMI media (10% FBS) containing GMCSF (100 ng/ml) and IL4 (20 ng/ml) and keep the flask in 37° C. incubator. After 3 days, add fresh GMCSF (100 ng/ml) and IL4 (20 ng/ml) to the flask and continue the incubation.
• 1. […]
• 1. […] To the remaining 40 μl/well of the cell culture plate add 25 μl of Cell Titer Glo reagent, incubate for 1-2 minutes on a shaker and read the plate for luminescence intensity to determine the compound cytotoxicity. […]

Each structure is given as a SMILES string.

As to `COc1cc(Nc2ncc(F)c(Nc3ccc4c(n3)NC(=O)C(C)(C)O4)n2)cc(OC)c1OC` [Compound R406, 6-((5-fluoro-2-((3,4,5-trimethoxyphenyl)amino)pyrimidin-4-yl)amino)-2,2-dimethyl-2H-pyrido[3,2-b][1,4]oxazin-3(4H)-one], in assay [1], the 50% effective concentration (EC50) was 56 to 64 nM. The IC50 in assay [2] turned out to be 0.119 µM; in assay [3] it was 3.14 µM.
